Data reported in US20060211606A1, “Peptides” (priority 2005, published 2006).
“Also recorded” adds a separate entry of the source. *1 amine or outer side, *2 acyl side, *3 side chain or, on linkers, in order; H or OH if unused. [ ]: non-standard residue; d: D form. PEG (Jeffamine) = not defined here; Suc = O=C(CCC(=O)[*:2])[*:1]

Columns and labels:
[1] = tested on: primary human muscle cell cultures; test: Creatine phosphokinase (CPK) assay of myogenic differentiation / myotube formation; assay type: cell-based; details: for effect on myoblast differentiation and myotube formation: differentiation medium, 48 hours, peptide alone (IGF-I 10 ng/ml)
Description: This assay was performed using previously published protocols [Auluck et al., 2005]. Measurement of CPK allows for the quantitative comparison of myogenesis [Goto et al., 1999], as it is a marker of myotube formation. The enzyme CPK catalyzes the reversible phosphorylation of adenosine-5-diphosphate (ADP) to form adenosine-5-triphosphate (ATP) and free creatine. The reaction may be followed in either direction by measuring the formation of inorganic phosphorus, an end-product of the reaction which is proportional to CPK activity. This was measured using the calorimetric method based on the generation of inorganic phosphate [Fiske and Subbarow, 1925] procedure. This was then expressed in terms of the protein content of the culture.
Previously expanded primary human muscle cell cultures were re-plated at 10×10^4 cells/well in 0.2% gelatin coated 96 well plates. […] (Sigma-Aldrich IGF-I ER2). After 48 hours, cells were washed twice with ice cold PBS and then stored frozen in 0.5 mM glycine buffer (pH 6.75) at −70° C. Fixed cells were lysed by rapid thawing and CPK assay kit used according to manufacturers instructions (Sigma-Aldrich). The protein concentration of each sample was determined against an albumin standard curve using the Pierce Micro BCA Kit (PerBio Science, UK Ltd., Northumberland, UK).

[2] = tested on: normal lower limb (quadriceps) primary cultures; test: Desmin positive cell proliferation, normal lower limb (quadriceps) primary cultures; assay type: cell-based, human; details: for desmin positive cells as percentage of total cells: peptide alone, 10 ng/ml, mean±s.d.
Description: (§1) Human primary muscle cell cultures were isolated as previously described [Lewis et al., 2000; Sinanan et al., 2004]. Briefly, following informed consent, craniofacial (masseter) muscle biopsies were obtained from healthy adult and CMD patients during elective surgery at the Eastman and Middlesex Hospitals, London, UK. Human lower limb (vastus lateralis) muscle samples were obtained from consenting, adult healthy, FSHD and ALS patients by needle biopsy under local anaesthesia at the Royal Free Hospital, London, UK. Biopsies were pooled from several patients with the same disorder to obtain sufficient cell numbers in the primary cultures. These were washed with antibiotic (penicillin, 100 U/ml; streptomycin, 100 μg/ml; fungizone, 2.5 μg/ml; Invitrogen) supplemented DMEM (high glucose; Invitrogen), scissor-minced and tissue fragments plated into 0.2% gelatin-coated (Sigma-Aldrich) T150 cm^2 culture flasks (Helena Biosciences). Explant cultures were incubated in serum-containing Growth Media (sGM), composed of DMEM, 20% FCS (PAA Laboratories), penicillin (100 U/ml) and streptomycin ([…]) (Invitrogen), and maintained at 37° C. in humidified 95% air with 5% CO2. The first wave of migration of mononuclear cells from the explant was designated the […]-wave and this population was used throughout this study. Migratory human muscle cell were enzymatically harvested using trypsin-EDTA (Invitrogen) and subcultured in sGM until 70-80% confluency. Passage number x (Px), was defined as the xth sequential harvest of subconfluent cells. All experiments were performed using P3-5 cohorts. […]
(§2) At the appropriate time-points, cells were fixed with methanol for 10 min (−20° C.), followed by detergent permeabilization with 0.5% Triton-X100 for 10-15 min. […] Cell-associated fluorescence and morphology, were visualized by epi-fluorescence and Leica Modulation Contrast (LMC) microscopy respectively, using an inverted Leica DMIRB microscope equipped with Leica FW4000 image processing software. For the proliferation assay, all blue and green fluorescent positive cells were counted in a field. […]

[3] = tested on: muscle cells from amyotrophic lateral sclerosis (ALS); test: Desmin positive cell proliferation, muscle cells from amyotrophic lateral sclerosis (ALS); assay type: cell-based, human; details: for desmin positive cells as percentage of total cells: peptide alone, 10 ng/ml, mean±s.d.
Description: (§3) Human primary muscle cell cultures were isolated as previously described [Lewis et al., 2000; Sinanan et al., 2004]. Briefly, following informed consent, craniofacial (masseter) muscle biopsies were obtained from healthy adult and CMD patients during elective surgery at the Eastman and Middlesex Hospitals, London, UK. Human lower limb (vastus lateralis) muscle samples were obtained from consenting, adult healthy, FSHD and ALS patients by needle biopsy under local anaesthesia at the Royal Free Hospital, London, UK. Biopsies were pooled from several patients with the same disorder to obtain sufficient cell numbers in the primary cultures. These were washed with antibiotic (penicillin, 100 U/ml; streptomycin, 100 μg/ml; fungizone, 2.5 μg/ml; Invitrogen) supplemented DMEM (high glucose; Invitrogen), scissor-minced and tissue fragments plated into 0.2% gelatin-coated (Sigma-Aldrich) T150 cm^2 culture flasks (Helena Biosciences). Explant cultures were incubated in serum-containing Growth Media (sGM), composed of DMEM, 20% FCS (PAA Laboratories), penicillin (100 U/ml) and streptomycin ([…]) (Invitrogen), and maintained at 37° C. in humidified 95% air with 5% CO2. The first wave of migration of mononuclear cells from the explant was designated the […]-wave and this population was used throughout this study. Migratory human muscle cell were enzymatically harvested using trypsin-EDTA (Invitrogen) and subcultured in sGM until 70-80% confluency. Passage number x (Px), was defined as the xth sequential harvest of subconfluent cells. All experiments were performed using P3-5 cohorts. The expanded cells were then stored under cryogenic conditions until they were used in the experiments described below. At least 6 runs were made for each of the treatments used for each diseased muscle culture as well as for the two types of healthy muscle.
(§4) Assessment of the number of myogenic precursors was performed as described previously (Sinanan et al., 2004). Cells were re-plated on gelatin-coated (0.2%) 13 mm coverslips at an initial density of 4.5×10^3 cells cm^−2. […]
as §2

[4] = tested on: dystrophic muscles of the mdx mouse; test: Intramuscular injection into dystrophic muscle of mdx mice, tetanic force; assay type: in vivo; details: i.m. two per week for three weeks
Description: Greater increases, of up to around 35% (FIGS. 3A, 3B), were recorded for intramuscular injections (two per week for three weeks) in the dystrophic muscles of the mdx mouse, which has the same type of mutation as that in human Duchenne muscular dystrophy.

infarcted ovine heart = test: Ovine myocardial infarction, intracoronary injection, ejection fraction by echocardiography; assay type: in vivo; details: ovine MI; intracoronary injection 15 minutes after MI; ejection fraction day 6 vs day 1
Description: A myocardial infarction (MI) was induced in ovine hearts by catheterising a marginal branch of the circumflex coronary artery and injecting a small bolus of microspheres to induce localised ischemia. […] As a control, mature liver-type IGF-I was used.

[5] = tested on: normal craniofacial (masseter) primary cultures; test: Desmin positive cell proliferation, normal craniofacial (masseter) primary cultures; assay type: cell-based, human; details: for desmin positive cells as percentage of total cells: peptide alone, 10 ng/ml, serum-free defined media, mean±s.d.
Description: as §3, §4, §2

muscle cells from FSHD = test: Desmin positive cell proliferation, muscle cells from FSHD; assay type: cell-based, human; details: for desmin positive cells as percentage of total cells: peptide alone, 10 ng/ml, mean±s.d.
Description: as §1, §2

[6] = stabilised peptide in combination with IGF-I

Substance | effect on myoblast differentiation and myotube formation [1] | effect on myoblast differentiation and myotube formation ([1]; listed as mature IGF-I) | desmin positive cells as percentage of total cells [2] [%] | desmin positive cells as percentage of total cells [3] [%] | percentage change in tetanic force (increase in muscle strength) [4] | effect on percentage of viable myocardium and ejection fraction (infarcted ovine heart) | desmin positive cells as percentage of total cells ([5]; normal craniofacial) [%] | desmin positive cells as percentage of total cells (muscle cells from FSHD) [%] | effect on differentiation in the presence of 10 ng/ml IGF-I ([1]; stabilised peptide with 10 ng/ml IGF-I, dose-dependent) | desmin positive cells as percentage of total cells, IGF-I added [2, 6] [%] | desmin positive cells as percentage of total cells, IGF-I added [3, 6] [%] | desmin positive cells as percentage of total cells, plus anti-IGF-I receptor antibody Ab-1 ([3]; stabilised peptide plus Ab-1) [%] | desmin positive cells as percentage of total cells, IGF-I added ([5]; normal craniofacial, stabilised peptide in combination with IGF-I (10 ng/ml each)) [%] | desmin positive cells as percentage of total cells, plus anti-IGF-I receptor antibody Ab-1 ([5]; normal muscle, stabilised peptide plus Ab-1) [%] | desmin positive cells as percentage of total cells, IGF-I added (muscle cells from FSHD; [6]) [%]
IGF-I: IGF-I receptor binding domain encoded by Exons 3 and 4, common to all splice variants, approximately 70 amino acids [reference compound] | apparently stimulates myotube formation | enhanced differentiation | 47.1±3.5 | 4.7±1.4 | around 5% | much smaller effect | 58.4±4.2 | 14.1±1.6 |  |  |  |  |  |  | 
stabilised peptide: SEQ ID NO: 15 with D-Arginine at positions 14 and 15, N-terminus attached to PEG (Jeffamine) via succinic acid bridge, amidated at C-terminus ({PEG (Jeffamine)-Suc}-YQPPSTNKNTKSQ[dR][dR]KGSTFEEHK-NH2; reading uncertain) | no effect on myotube formation; also recorded: did not facilitate primary myoblast differentiation and myotube formation |  | 57.9±3.2 | 7.2±0.8 | ≤ 35% | markedly increase the percentage of viable myocardium and the ejection fraction | 68.8±3.9 | 20.4±2.1 | prevented differentiation to the myoblast fusion competent stage | 38.8±0.6 | 5.3±1.0 | 6.5±0.8 | 59.5±4.2 | 71.1±6.2 | 14.5±1.4
